Laboratory results from ChEMBL document CHEMBL6182877, “Design, synthesis, and activity evaluation of novel STING inhibitors based on C170 and H151” (Eur J Med Chem, 2025).
Activity calls are given as the source filed them. The calls are words filed in the database; no cut-off is given here.

Assays:
THP-1 = experiment: Cytotoxicity against human THP-1 cells assessed as cell viability by MTT assay
[1] = Cytotoxicity against HUVEC cells assessed as cell viability by MTT assay; type: toxicity, cell-based; details: human
Mus musculus [2] = experiment: Anti-inflammatory activity against MSA-2 induced C57BL/6 mouse model assessed as reduction in splenic index at 30 mg/kg, ip pretreated with compound for 1 hr followed by MSA-2 induction and measured after 4 hrs; type: functional, organism-based; details: time 5.0 hrs
RAW264.7 [3] = experiment: Cytotoxicity against mouse RAW264.7 cells assessed as cell viability by MTT assay
[4] = Toxicity in male C57BL/6J mouse assessed as kidney damage at 10 mg/kg, ip by H and E staining based analysis; type: organism-based; details: in vivo
Mus musculus [5] = experiment: Anti-inflammatory activity against MSA-2 induced C57BL/6 mouse model assessed as downregulation of TBK1 expression in spleen at 30 mg/kg, ip pretreated with compound for 1 hr followed by MSA-2 induction and measured after 4 hrs; type: functional, organism-based; details: time 5.0 hrs
Mus musculus [6] = experiment: Renoprotective activity in cisplatin-induced acute kidney injury C57BL/6J mouse model assessed as reduction in […] level at 10 mg/kg, ip; type: functional, organism-based
Mus musculus [7] = experiment: Renoprotective activity in cisplatin-induced acute kidney injury C57BL/6J mouse model assessed as reduction in BUN level at 10 mg/kg, ip; type: functional, organism-based
[8] = Toxicity in male C57BL/6J mouse assessed as body weight loss at 10 mg/kg, ip; type: organism-based; details: in vivo
[9] = Cytotoxicity against HEK293T cells assessed as cell viability by MTT assay; type: toxicity, cell-based, HEK-293T; details: human
Mus musculus [10] = experiment: Anti-inflammatory activity against MSA-2 induced C57BL/6 mouse model assessed as reduction in IL-6 level in plasma at 30 mg/kg, ip pretreated with compound for 1 hr followed by MSA-2 induction and measured after 4 hr; type: functional, organism-based; details: time 5.0 hrs
Mus musculus [11] = experiment: Anti-inflammatory activity against MSA-2 induced C57BL/6 mouse model assessed as reduction in IFN-beta level in plasma at 30 mg/kg, ip pretreated with compound for 1 hr followed by MSA-2 induction and measured after 4 hr; type: functional, organism-based; details: time 5.0 hrs
[12] = molecular target: T1, Serine/threonine-protein kinase TBK1 (Homo sapiens) (UniProt Q9UHD2); experiment: Inhibition of TBK1 phosphorylation in SR717-induced human THP-1 cells at 0.2 to 5 uM pretreated with compound for 1 hr followed by SR717 induction and measured after 4 hrs by Western blot analysis; type: cell-based; details: dose 0.2-5 µM, time 5.0 hrs
T1 sequence (whole entry): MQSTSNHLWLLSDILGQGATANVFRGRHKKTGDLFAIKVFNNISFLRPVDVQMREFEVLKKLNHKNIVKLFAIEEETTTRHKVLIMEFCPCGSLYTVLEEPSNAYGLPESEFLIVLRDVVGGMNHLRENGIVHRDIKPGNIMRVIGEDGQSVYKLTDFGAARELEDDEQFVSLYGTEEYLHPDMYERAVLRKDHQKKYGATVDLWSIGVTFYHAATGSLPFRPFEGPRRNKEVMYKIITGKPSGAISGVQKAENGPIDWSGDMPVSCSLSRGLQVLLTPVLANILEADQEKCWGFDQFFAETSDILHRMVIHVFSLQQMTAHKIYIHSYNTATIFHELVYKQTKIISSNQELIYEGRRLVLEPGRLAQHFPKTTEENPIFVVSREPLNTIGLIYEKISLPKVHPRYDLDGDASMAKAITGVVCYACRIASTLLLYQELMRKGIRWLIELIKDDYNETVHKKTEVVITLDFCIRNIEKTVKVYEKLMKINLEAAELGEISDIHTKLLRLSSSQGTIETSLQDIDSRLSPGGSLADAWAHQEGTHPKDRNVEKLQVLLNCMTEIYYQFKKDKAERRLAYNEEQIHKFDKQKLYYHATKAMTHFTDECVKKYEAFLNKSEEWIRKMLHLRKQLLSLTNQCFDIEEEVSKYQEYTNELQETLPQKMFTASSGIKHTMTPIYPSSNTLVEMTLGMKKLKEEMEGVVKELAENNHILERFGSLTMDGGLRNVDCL

RAW264.7 [13] = experiment: Antiinflammatory activity in mouse RAW264.7 cells assessed as inhibition of LPS-induced NO release at 0.2 to 5 uM pretreated with compound for 1 hr; type: functional, cell-based; details: dose 0.2-5 µM
[14] = molecular target: T2, Stimulator of interferon genes protein (Mus musculus) (UniProt Q3TBT3); experiment: Binding affinity to STING in mouse RAW264.7 cells assessed as increase in thermal stability at 30 uM 40 to 61 degreeC incubated for 8 hrs by CETSA analysis; type: cell-based
T2 sequence (whole entry): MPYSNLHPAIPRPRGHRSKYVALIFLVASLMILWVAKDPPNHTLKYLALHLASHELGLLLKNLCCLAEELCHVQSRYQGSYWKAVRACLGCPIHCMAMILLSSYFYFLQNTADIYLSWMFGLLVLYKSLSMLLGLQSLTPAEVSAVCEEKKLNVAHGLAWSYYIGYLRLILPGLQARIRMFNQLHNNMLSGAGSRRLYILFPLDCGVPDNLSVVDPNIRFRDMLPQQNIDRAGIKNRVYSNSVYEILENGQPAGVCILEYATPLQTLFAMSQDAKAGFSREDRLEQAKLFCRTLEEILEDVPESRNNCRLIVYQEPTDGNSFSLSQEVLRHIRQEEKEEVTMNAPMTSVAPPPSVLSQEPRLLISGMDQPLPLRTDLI

[15] = molecular target: T3, Interferon regulatory factor 3 (Homo sapiens) (UniProt Q14653); experiment: Inhibition of IRF3 phosphorylation in SR717-induced human THP-1 cells at 0.2 to 5 uM pretreated with compound for 1 hr followed by SR717 induction and measured after 4 hrs by Western blot analysis; type: cell-based; details: dose 0.2-5 µM, time 5.0 hrs
T3 sequence (whole entry): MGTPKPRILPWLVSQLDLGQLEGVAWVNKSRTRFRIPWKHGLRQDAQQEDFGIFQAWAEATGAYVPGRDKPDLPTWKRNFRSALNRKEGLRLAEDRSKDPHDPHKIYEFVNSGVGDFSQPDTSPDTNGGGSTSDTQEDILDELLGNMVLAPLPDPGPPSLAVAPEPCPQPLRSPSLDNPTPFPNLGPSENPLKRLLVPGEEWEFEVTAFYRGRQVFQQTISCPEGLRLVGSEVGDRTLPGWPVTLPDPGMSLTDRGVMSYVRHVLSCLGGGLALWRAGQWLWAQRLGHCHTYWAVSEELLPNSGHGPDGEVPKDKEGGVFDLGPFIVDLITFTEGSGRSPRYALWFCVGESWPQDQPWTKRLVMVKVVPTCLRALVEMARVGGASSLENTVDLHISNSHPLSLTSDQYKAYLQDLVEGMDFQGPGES

Mus musculus [16] = experiment: Anti-inflammatory activity in cisplatin-induced acute kidney injury C57BL/6J mouse model assessed as reduction in kidney index at 10 to 20 mg/kg, ip; type: functional, organism-based; details: dose 10-20 mg/kg
Mus musculus [17] = experiment: Protection against cisplatin-induced C57BL/6J mouse assessed as effect on fibrotic tissue proliferation in spleen at 10 to 20 mg/kg, ip pretreated with compound for 1 hr followed by cisplatin induction and measured after 4 hrs by H and E staining based analysis; type: functional, organism-based; details: dose 10-20 mg/kg, time 5.0 hrs
Mus musculus [18] = experiment: Protection against cisplatin-induced C57BL/6J mouse assessed as reduction in tubular obstruction in kidney at 10 to 20 mg/kg, ip pretreated with compound for 1 hr followed by cisplatin induction and measured after 4 hrs by H and E staining based analysis; type: functional, organism-based; details: dose 10-20 mg/kg, time 5.0 hrs
Mus musculus [19] = experiment: Protection against cisplatin-induced C57BL/6J mouse assessed as reduction in tubular epithelial edema in kidney at 10 to 20 mg/kg, ip pretreated with compound for 1 hr followed by cisplatin induction and measured after 4 hrs by H and E staining based analysis; type: functional, organism-based; details: dose 10-20 mg/kg, time 5.0 hrs
Mus musculus [20] = experiment: Protection against cisplatin-induced C57BL/6J mouse assessed as reduction in tubular structure disintegration in kidney at 10 to 20 mg/kg, ip pretreated with compound for 1 hr followed by cisplatin induction and measured after 4 hrs by H and E staining based analysis; type: functional, organism-based; details: dose 10-20 mg/kg, time 5.0 hrs
Mus musculus [21] = experiment: Protection against cisplatin-induced C57BL/6J mouse assessed as effect on inflammatory cell infiltration in spleen at 10 to 20 mg/kg, ip pretreated with compound for 1 hr followed by cisplatin induction and measured after 4 hrs by H and E staining based analysis; type: functional, organism-based; details: dose 10-20 mg/kg, time 5.0 hrs
Mus musculus [22] = experiment: Anti-inflammatory activity in cisplatin-induced acute kidney injury C57BL/6J mouse model assessed as reduction in ALT level in plasma at 10 to 20 mg/kg, ip; type: functional, organism-based; details: dose 10-20 mg/kg
[23] = molecular target: Stimulator of interferon genes protein (Homo sapiens) (UniProt Q86WV6); experiment: Inhibition of STING activation in human THP-1 cells assessed as reduction in SR717-induced IFNbeta mRNA expression at 0.03 to 0.3 uM pretreated with compound for 1 hr followed by SR717 induction and measured after 4 hrs by qPCR analysis; type: cell-based; details: dose 0.03-0.3 µM, time 5.0 hrs
Mus musculus [24] = experiment: Renoprotective activity in cisplatin-induced acute kidney injury C57BL/6J mouse model assessed as reduction in […] level at 10 to 20 mg/kg, ip; type: functional, organism-based; details: dose 10-20 mg/kg
[25] = molecular target: Stimulator of interferon genes protein (Homo sapiens) (UniProt Q86WV6); experiment: Inhibition of STING activation in human THP-1 cells assessed as reduction in SR717-induced CXCL10 mRNA expression at 0.03 to 0.3 uM pretreated with compound for 1 hr followed by SR717 induction and measured after 4 hrs by qPCR analysis; type: cell-based; details: dose 0.03-0.3 µM, time 5.0 hrs
Mus musculus [26] = experiment: Protection against cisplatin-induced C57BL/6J mouse assessed as effect on enlargement of splenic corpuscle in spleen at 10 to 20 mg/kg, ip pretreated with compound for 1 hr followed by cisplatin induction and measured after 4 hrs by H and E staining based analysis; type: functional, organism-based; details: dose 10-20 mg/kg, time 5.0 hrs
[27] = molecular target: T2, Stimulator of interferon genes protein (Mus musculus); experiment: Binding affinity to STING in mouse RAW264.7 cells assessed as increase in thermal stability at 30 uM 47 to 62 degreeC incubated for 8 hrs by CETSA analysis; type: cell-based
Mus musculus [28] = experiment: Protection against cisplatin-induced C57BL/6J mouse assessed as reduction in vacuole-like changes in kidney at 10 to 20 mg/kg, ip pretreated with compound for 1 hr followed by cisplatin induction and measured after 4 hrs by H and E staining based analysis; type: functional, organism-based; details: dose 10-20 mg/kg, time 5.0 hrs
Mus musculus [29] = experiment: Protection against cisplatin-induced C57BL/6J mouse assessed as reduction in inflammatory cell exudation in kidney at 10 to 20 mg/kg, ip pretreated with compound for 1 hr followed by cisplatin induction and measured after 4 hrs by H and E staining based analysis; type: functional, organism-based; details: dose 10-20 mg/kg, time 5.0 hrs
Mus musculus [30] = experiment: Anti-inflammatory activity in cisplatin-induced acute kidney injury C57BL/6J mouse model assessed as reduction in AST level in plasma at 10 to 20 mg/kg, ip; type: functional, organism-based; details: dose 10-20 mg/kg

Stimulator of interferon genes protein (Homo sapiens), sequence (Q86WV6 whole entry): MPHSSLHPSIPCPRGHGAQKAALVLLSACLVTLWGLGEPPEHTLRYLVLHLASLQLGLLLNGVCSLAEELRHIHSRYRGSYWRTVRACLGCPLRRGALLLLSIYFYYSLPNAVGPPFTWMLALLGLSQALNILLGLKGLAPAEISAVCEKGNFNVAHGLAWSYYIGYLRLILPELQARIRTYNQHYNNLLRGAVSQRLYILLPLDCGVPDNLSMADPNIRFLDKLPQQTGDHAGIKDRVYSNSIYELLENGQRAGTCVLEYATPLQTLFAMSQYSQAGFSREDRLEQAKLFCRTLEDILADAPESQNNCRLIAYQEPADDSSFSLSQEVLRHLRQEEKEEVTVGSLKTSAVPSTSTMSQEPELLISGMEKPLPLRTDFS

| Compound | IC50 (THP-1) | IC50 [1] | Activity (Mus musculus [2]) | IC50 (RAW264.7 [3]) | Activity [4] | Activity (Mus musculus [5]) | Activity (Mus musculus [6]) | Activity (Mus musculus [7]) | Activity [8] | IC50 [9] | Activity (Mus musculus [10]) | Activity (Mus musculus [11]) | other results |
| --- | --- | --- | --- | --- | --- | --- | --- | --- | --- | --- | --- | --- | --- |
| CCCCc1ccc(NC(=O)c2ccc([N+](=O)[O-])o2)cc1 | 8.07 µM | 4.77 µM | Active | 0.89 µM | Non-toxic | Active | Active | Active | Non-toxic | 2.81 µM | Active | Active | – |
| O=C(/C=C/C=C/c1ccccc1)OCCc1ccc(NC(=O)c2ccc([N+](=O)[O-])o2)cc1 | 4.6 µM | 7.89 µM | – | 2.62 µM | – | – | – | – | – | 6.34 µM | – | – | – |
| O=C(Nc1ccc(OCCCC(F)(F)F)cc1)c1ccc([N+](=O)[O-])o1 | 16.8 µM | 10.4 µM | Active | 5.21 µM | Non-toxic | Active | Active | Active | Non-toxic | 11.3 µM | Active | Active | inhibition [12]: Active; Activity (RAW264.7 [13]): inactive; Activity [14]: Active; inhibition [15]: Active |
| O=C(/C=C/C=C/c1ccccc1)OCc1ccc(NC(=O)c2ccc([N+](=O)[O-])o2)cc1 | – | – | – | 0.53 µM | – | – | – | – | – | 7.43 µM | – | – | – |
| C/C=C/C=C/C(=O)OCc1ccc(NC(=O)c2ccc([N+](=O)[O-])o2)cc1 | – | – | – | 0.49 µM | – | – | – | – | – | 8.57 µM | – | – | – |
| O=C(Nc1ccc(OCCCC(F)(F)F)cc1)Nc1c[nH]c2ccccc12 | – | – | – | – | – | – | – | – | – | – | – | – | Activity (Mus musculus [16]): Active; Activity (Mus musculus [17]): Active; Activity (Mus musculus [18]): Active; Activity (Mus musculus [19]): Active; Activity (Mus musculus [20]): Active; Activity (Mus musculus [21]): Active; Activity (Mus musculus [22]): Active; inhibition [23]: Active; Activity (Mus musculus [24]): Active; inhibition [25]: Active; Activity (Mus musculus [26]): Active; Activity [27]: Active; Activity (Mus musculus [28]): Active; Activity (Mus musculus [29]): Active; Activity (Mus musculus [30]): Active |
